The results in this text go back to patent US7312239B2, “Medicament for prevention and/or therapy of arterial wall disorder” (Mitsubishi Pharma Corporation, priority 2002, dated 2007).

Molecules are shown by their SMILES.

Assay [1] concerns abdominal aorta of rabbits injured by use of a balloon. Nature of the assay: Balloon injury of abdominal aorta in cholesterol-fed rabbits, ratio of new intima to new media (I/M). Format: in vivo, Japanese white rabbits. The following applies: rabbits on 1% cholesterol food, 10 mg/kg intravenous injection twice per day from the day before injury, 10th week, p=0.018 vs control 0.475±0.136. How it is done:
(§1) Japanese white rabbits were divided into two groups, an edaravone group (n=6) and a control group (n=6), and they were fed with 1% cholesterol food for 10 weeks. On the 8th week, the rabbits of both groups were injured such that their abdominal aorta was damaged by use of a balloon. For the edaravone group, edaravone was administered every day (10 mg/kg, intravenous injection twice per day) from the day before the balloon injury. For the control group, a physiological salt solution was administered. On the 10th week, the rabbits were sacrificed, and their abdominal aorta was excised. The ratio of a new intima to a new media (the ratio of the intimal area of a blood vessel section to the medial area thereof; I/M) was measured as follows. First, total 5 portions were cut out of the abdominal aorta into round slices each having a width of 5 mm, and HE-stained samples were prepared therefrom. A new intimal area and a new medial area were analyzed with computer software, and the mean value of the 5 portions was obtained, followed by calculation of I/M.

The nature of assay [2]: Total cholesterol, triglyceride and lipid peroxide in serum of balloon-injured cholesterol-fed rabbits. Format: in vivo, Japanese white rabbits. Particulars: 10 mg/kg i.v. twice per day, before cholesterol food, at balloon injury, at sacrifice, vs control group. How it is done:
as §1
Moreover, total cholesterol (TC), triglyceride (TG) and lipid peroxide (LPO) in serum were measured, before the rabbits were fed with cholesterol food, when they were injured by use of a balloon, and when they were sacrificed.

Assay [3] has as its system right common carotid artery injured by abrasion with a 2F balloon. Nature of the assay: Balloon injury of right common carotid artery in ovary-eliminated rats, I/M. The format is in vivo. The following applies: ovary elimination (OVX) female SD rats, 30 mg/kg/day oral for 3 days after operation, 14th day; p<0.01 vs OVX+V 1.36±0.12. How it is done: (§2) 11′-week-old female SD rats were divided into two groups, an ovary elimination group (OVX) and an ovary non-elimination group (INT). To the OVX group, edaravone (Ed) (30 mg/kg/day) (n=8) or vehicle (V) (n=7) was orally administered, and to the INT group (n=4), vehicle (V) was administered. The vascular endothelium of the right common carotid artery was injured by abrasion with a 2F balloon. The above drugs were administered for 3 days immediately after the above operation. On the 14th day, the blood vessel was excised, and the ratio of a new intima to a new media (I/M) was calculated.

Assay [4] has the same test system. Nature of the assay: Balloon injury of carotid artery in OLETF rats with type II diabetes, I/M. The format is in vivo. The following applies: male OLETF rats with type II diabetes, administered from 3 days before to 14th day after operation; p<0.01 vs vehicle 1.12±0.15. Here is the method:
as §2, with “calculated. 30-week-old male OLETF rats with type II diabetes were divided into two groups, an edaravone (Ed) administration group (n=4) and a vehicle (V) administration group (n=4). The above-described blood vessel injury was carried out on them. The above drugs were continuously administered from 3 days before the above operation to the 14th day after the above operation. Thereafter, the ratio of a new intima to a new media (I/M) was calculated.” for “calculated.”

On to `CC1=NN(c2ccccc2)C(=O)C1` [edaravone, 3-methyl-1-phenyl-2-pyrazolin-5-one], for which, in assay [1], the “ratio of a new intima to a new media (I/M)” value (from here on “ratio of a new intima”) came out at 0.344±0.055. In assay [2], the “lipid peroxide (LPO) in serum” value is recorded as “not significantly different”, the “total cholesterol (TC) in serum” value is “not significantly different” and the “triglyceride (TG) in serum” value is “not significantly different”. For the same compound, the “ratio of a new intima” value in assay [3] came out at 0.82±0.09. Moreover, the “ratio of a new intima” value in assay [4] is given as 0.55±0.02.
